Laboratory results: patent publication US11447535B2, “GLP-1 analogues” (Sun Pharmaceutical Industries Limited, priority 2018, dated 2022)
Marks after values point to notes of the source that are not given here.

How the values were obtained:
[1] = Food intake and body weight recorded in the rat OGTT study; type: in vivo, rats; conditions: 1 mg/Kg; for Body Weight Change (%) Mean / Food Consumption (g) Mean: Exp. 1
Experimental: (§1) Animals were divided into three groups—a normal control group, a test group and a third semaglutide group, with 4 animals in each group. The animals were fasted for 12 hours before initiation of OGTT. To the test group animals, the Compound 1 was injected subcutaneously at 1 mg/kg dose. To the semaglutide group, a dose of 1 mg/kg was injected subcutaneously. After 22 hrs, 166 hrs and 334 hrs of subcutaneous injection of test drug or semaglutide, blood glucose was measured with blood glucose meter (time 0 measurements). All the animals were then given 2 g/kg of glucose solution orally. Blood glucose was measured at 20, 40, 60, 90 and 120 minutes following glucose challenge. Body weight and food intake was recorded. Blood glucose data was analyzed using Two way ANOVA followed by Bonferroni posttests using PRISM (Graph Pad version 5.03). Data of Blood glucose AUC0-120 min, was analyzed using t test.
as §1, with “animals,” for “animals, the”, “1, Compound 13 and Compound 16 were” for “1 was”, “compound” for “drug”

[2] = tested on: SD rats; assay: Oral glucose tolerance test (OGTT) in rats; single injection; 1 mg/kg; type: in vivo; design: Change in AUC (mg/dL*min): unit not given here; conditions: for Blood Glucose AUC (mg/dL*min) Mean / Change in AUC (mg/dL*min): OGTT, 1 mg/Kg; for Blood Glucose AUC (mg/dL*min) Mean: Exp. 1; for Change in AUC (mg/dL*min): Exp. 1, vs control group
Experimental: as §1
as §1, with “animals,” for “animals, the”, “1, Compound 13 and Compound 16 were” for “1 was”, “compound” for “drug”

[3] = tested on: db/db mice (diabetic mouse model); assay: Separate db/db diabetic mouse study, q2d*15 up to day 28, recovery period day 29 to day 45; type: in vivo; conditions: for Blood Glucose AUC (Day 30-37) % Change vs Control / Blood Glucose AUC (Day 30-37) (mg/dL*days) Mean / Blood Glucose AUC (Day 38-45) % Change vs Control / Blood Glucose AUC (Day 38-45) (mg/dL*days) Mean: recovery period
Experimental: The study was performed in similar manner as above on diabetic mouse model. The animals were divided into three treatment groups—a diabetic control group, a test group and a semaglutide treatment group. The representative compounds of the present disclosure, Compound 1, Compound 13 and Compound 16, were injected subcutaneously at 3.04 or 6.078 nM dose (every alternate day up to day 28 (q2d*15). The same dosage regimen was administered in semaglutide treatment group. Measurements of blood glucose levels and body weight were done daily. % HbA1c, Insulin was measured on Day 0, day 14 and day 29. Cumulative food intake and body weight change was calculated on day 14 and 29. % HbA1c, Insulin data was analyzed by two way ANOVA followed by Bonferroni's posttests using PRISM (Graph Pad version 5.03). Whereas Blood Glucose AUC, Body weight change and Cumulative food intake data was analyzed by one way ANOVA followed by Bonferroni's posttests using PRISM (Graph Pad version 5.03). From day 29 to day 45, animals were kept on recovery period during which no drug treatment was given. Blood Glucose and Body weight was measured during this period. On day 45, Body weight Changes, % HbA1c, Insulin was measured.

[4] = earlier dose 3.04 nM (3.4 nM given for Compound 16)
[5] = recovery study, day 45, earlier dose 3.04 nM
[6] = recovery study, day 45, earlier dose 6.078 nM (6.0788 nM given for Compound 13)

**Q.** What does the source list for “Compound 13: SEQ ID NO: 05, acylated with Moiety C (HXXXGTFTSDVSSYLXGQAAXEFXAWLVRGRGXX; lipidated side chain; (2)..(2) Xaa = Aib; (3)..(3) Xaa = absent.; (4)..(4) Xaa = Glu.; (16)..(16) Xaa = Glu.; (21)..(21) Lys is substituted; (24)..(24) Xaa is Ile.; (33)..(33) Xaa is Leu.; (34)..(34) Xaa is absent.)”?
**A.** Body Weight Change (%) Mean ([1]; 48 h): −10.2%; Food Consumption (g) Mean ([1]; 48 h): 8.4 g; Body Weight Change (%) Mean ([1]; 154 h): 4.5%; Food Consumption (g) Mean ([1]; 154 h): 62.3 g; Body Weight Change (%) Mean ([1]; 324 h): 8.2%; Food Consumption (g) Mean ([1]; 324 h): 82.44 g; food consumed vs animals administered with semaglutide ([1]; text on Table 8): consumed significantly less food; Blood Glucose AUC (mg/dL*min) Mean ([2]; 22 hr): 2795.0 mg·min/dL; Change in AUC (mg/dL*min) ([2]; 22 hr): −81.2; Blood Glucose AUC (mg/dL*min) Mean ([2]; 168 hr): 6950.0 mg·min/dL; Change in AUC (mg/dL*min) ([2]; 168 hr): −59.5; Blood Glucose AUC (mg/dL*min) Mean ([2]; 336 hr): 11368.0 mg·min/dL; Change in AUC (mg/dL*min) ([2]; 336 hr): −31.6; reduction in blood glucose AUC ([2]; after 168 hrs of injection, 1 mg/kg): about 60%; Blood Glucose AUC (Day 0-29) % Change Vs Control ([3]; 3.04 nM, q2d*15): −43.86%; Blood Glucose AUC (Day 0-29) (mg/dL*days) Mean ([3]; 3.04 nM, q2d*15): 9515.4*** mg/dL*days; Body Weight Change Day 29, % Change vs Day 0 Mean ([3]; 3.04 nM, q2d*15): 1.2%; Cumulative Food Intake (g) Day 0-29 Mean ([3]; 3.04 nM, q2d*15): 75.2 g; Blood Glucose AUC (Day 0-29) % Change Vs Control ([3]; 6.078 nM, q2d*15): −50.13%; Blood Glucose AUC (Day 0-29) (mg/dL*days) Mean ([3]; 6.078 nM, q2d*15): 8451.7***## mg/dL*days; Body Weight Change Day 29, % Change vs Day 0 Mean ([3]; 6.078 nM, q2d*15): −1.1%; Cumulative Food Intake (g) Day 0-29 Mean ([3]; 6.078 nM, q2d*15): 70.4 g; % HbA1C Mean ([3]; Day 0, 3.04 nM, q2d*15): 7.7%; Insulin (ng/mL) Mean ([3]; Day 0, 3.04 nM, q2d*15): 21.7 ng/mL; % HbA1C Mean ([3]; Day 0, 6.078 nM, q2d*15): 7.83%; Insulin (ng/mL) Mean ([3]; Day 0, 6.078 nM, q2d*15): 26.2 ng/mL; % HbA1C Mean ([3]; Day 14, 3.04 nM, q2d*15): 6.6* %; Insulin (ng/mL) Mean ([3]; Day 14, 3.04 nM, q2d*15): 41.8 ng/mL; % HbA1C Mean ([3]; Day 14, 6.078 nM, q2d*15): 6.00 *** %; Insulin (ng/mL) Mean ([3]; Day 14, 6.078 nM, q2d*15): 61.2*** ng/mL; % HbA1C Mean ([3]; Day 29, 3.04 nM, q2d*15): 6.4 *** %; Insulin (ng/mL) Mean ([3]; Day 29, 3.04 nM, q2d*15): 54.4** ng/mL; % HbA1C Mean ([3]; Day 29, 6.078 nM, q2d*15): 5.64 *** %; Insulin (ng/mL) Mean ([3]; Day 29, 6.078 nM, q2d*15): 59.4*** ng/mL; HbA1c, blood glucose, food consumption and body weight vs control ([3]; about 3 nM and 6 nM dose): significant reduction; Blood Glucose AUC (Day 30-37) % Change vs Control [3, 4]: −27.93%; Blood Glucose AUC (Day 30-37) (mg/dL*days) Mean [3, 4]: 2588.7** mg/dL*days; Blood Glucose AUC (Day 38-45) % Change vs Control [3, 4]: −5.57%; Blood Glucose AUC (Day 38-45) (mg/dL*days) Mean [3, 4]: 3401.0 mg·days/dL; Blood Glucose AUC (Day 30-37) % Change vs Control ([3]; earlier dose 6.078 nM): −19.94%; Blood Glucose AUC (Day 30-37) (mg/dL*days) Mean ([3]; earlier dose 6.078 nM): 2875.7 mg·days/dL; Blood Glucose AUC (Day 38-45) % Change vs Control ([3]; earlier dose 6.078 nM): −6.68%; Blood Glucose AUC (Day 38-45) (mg/dL*days) Mean ([3]; earlier dose 6.078 nM): 3361.0 mg·days/dL; % HbA1C Mean [3, 5]: 7.5%; Delta HbA1C vs. DC [3, 5]: −1.0; Insulin (ng/mL) Mean [3, 5]: 31.2 ng/mL; % HbA1C Mean [3, 6]: 7.3%; Delta HbA1C vs. DC [3, 6]: −1.2; Insulin (ng/mL) Mean [3, 6]: 34.3 ng/mL; Body Weight % Change vs Day 45 Mean ([3]; recovery study, earlier dose 3.04 nM): 6.6%; Body Weight % Change vs Day 45 Mean ([3]; recovery study, earlier dose 6.078 nM (6.0788 nM given for Compound 13)): 5.5%
